This assay concerns the target T1, human recombinant HDAC6 (Homo sapiens, UniProt Q9UBN7).
T1 construct: purchased Calbiochem 382180
T1 sequence (Q9UBN7 1-1215): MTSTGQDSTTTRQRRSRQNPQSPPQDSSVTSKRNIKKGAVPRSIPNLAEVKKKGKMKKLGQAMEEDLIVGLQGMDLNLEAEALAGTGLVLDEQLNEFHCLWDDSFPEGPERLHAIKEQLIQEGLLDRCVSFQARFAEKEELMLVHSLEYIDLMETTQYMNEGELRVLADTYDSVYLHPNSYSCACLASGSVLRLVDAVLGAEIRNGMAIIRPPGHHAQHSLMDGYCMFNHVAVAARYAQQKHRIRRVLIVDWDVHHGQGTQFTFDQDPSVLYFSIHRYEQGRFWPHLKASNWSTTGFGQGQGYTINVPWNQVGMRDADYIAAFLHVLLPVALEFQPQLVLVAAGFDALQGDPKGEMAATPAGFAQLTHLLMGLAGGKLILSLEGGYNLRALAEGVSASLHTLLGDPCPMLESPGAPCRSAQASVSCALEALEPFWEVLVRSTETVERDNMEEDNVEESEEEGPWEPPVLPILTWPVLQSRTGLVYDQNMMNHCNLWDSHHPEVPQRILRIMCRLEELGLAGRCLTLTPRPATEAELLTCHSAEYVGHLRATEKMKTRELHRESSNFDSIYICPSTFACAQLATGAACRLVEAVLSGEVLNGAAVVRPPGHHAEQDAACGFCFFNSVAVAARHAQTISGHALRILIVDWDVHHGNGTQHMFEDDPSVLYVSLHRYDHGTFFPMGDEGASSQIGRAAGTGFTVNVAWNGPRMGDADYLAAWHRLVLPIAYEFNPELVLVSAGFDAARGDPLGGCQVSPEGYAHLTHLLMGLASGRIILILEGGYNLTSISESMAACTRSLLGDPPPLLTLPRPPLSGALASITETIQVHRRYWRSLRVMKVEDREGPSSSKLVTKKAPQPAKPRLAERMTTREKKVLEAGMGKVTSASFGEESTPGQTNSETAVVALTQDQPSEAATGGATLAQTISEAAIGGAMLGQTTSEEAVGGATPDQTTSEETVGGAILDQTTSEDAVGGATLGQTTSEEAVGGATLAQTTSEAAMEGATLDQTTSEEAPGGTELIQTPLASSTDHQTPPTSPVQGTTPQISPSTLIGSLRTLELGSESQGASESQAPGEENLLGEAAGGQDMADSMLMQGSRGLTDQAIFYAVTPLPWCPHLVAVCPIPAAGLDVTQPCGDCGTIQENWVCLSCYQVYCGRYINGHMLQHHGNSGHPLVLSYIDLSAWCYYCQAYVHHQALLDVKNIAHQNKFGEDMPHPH
Nature of the assay: HDAC enzyme activity inhibition assay (HDAC6, fluorimetric kit). The following applies: for HDAC6 selectivity (fold): HDAC6 versus HDAC1; for IC50: same protocol as the HDAC1 test. Format: biochemical. How it is done: In order to examine the HDAC6 selectivity of the compounds of formula I of the present invention by HDAC1 and HDAC6 enzymatic activity inhibition assays, an experiment was performed using a conventional substance as a control. HDAC enzyme activity was measured using a HDAC Fluorimetric Drug Discovery Kit (BML-AK511, 516) from Enzo Life Science. For the HDAC1 enzyme activity test, human recombinant HDAC1 (BML-SE456) was used as an enzyme source, and Fluor de Lys®-“SIRT1 (BNL-KI177) was used as a substrate. A 5-fold dilution of the compound was seeded into a 96-well plate, and then 0.3 μg of the enzyme and 10 μM of the substrate were added to each well of the plate and allowed to react at 30° C. for 60 minutes. Then, Fluor de Lys®-Developer II (BML-KI176) was added thereto and allowed to react for 30 minutes, after which the fluorescence value (Ex 360, Em 460) was measured using a multi-plate reader (Flexstation 3, Molecular Device). The HDAC6 enzyme was tested using human recombinant HDAC6 (382180) from Calbiochem, according to the same protocol as the HDAC1 enzyme activity test method. Based on the resulting values, each IC50 value was calculated using GraphPad Prism4.0 program.

The text below walks through data of patent US10584117B2, “1,3,4-oxadiazole amide derivative compound as histone deacetylase 6 inhibitor, and pharmaceutical composition containing same” (Chong Kun Dang Pharmaceutical Corp., priority 2015, dated 2020).

For `CC(=O)N1CCC(C(=O)N(Cc2ccc(-c3nnc(C(F)(F)F)o3)cc2)c2ccccc2)CC1` [Compound 11161, 1-acetyl-N-phenyl-N-(4-(5-(trifluoromethyl)-1,3,4-oxadiazol-2-yl)benzyl)piperidine-4-carboxamide], the “HDAC6 selectivity (fold)” value turned out to be 204 fold and the IC50 (usually the concentration that gives 50% inhibition) came to 489 nM.

For `CCC(=O)N1CCC(C(=O)N(Cc2ccc(-c3nnc(C(F)(F)F)o3)cc2)c2ccccc2)CC1` [Compound 11162, N-phenyl-1-propionyl-N-(4-(5-(trifluoromethyl)-1,3,4-oxadiazol-2-yl)benzyl)piperidine-4-carboxamide], the “HDAC6 selectivity (fold)” value came out at 483 fold and the IC50 worked out at 207 nM.

`CC(C)C(=O)N1CCC(C(=O)N(Cc2ccc(-c3nnc(C(F)(F)F)o3)cc2)c2ccccc2)CC1` [Compound 11163, 1-isobutyryl-N-phenyl-N-(4-(5-(trifluoromethyl)-1,3,4-oxadiazol-2-yl)benzyl)piperidine-4-carboxamide]: the “HDAC6 selectivity (fold)” value is 452 fold and the IC50 came to 221 nM.

Consider `O=C(C1CCN(C(=O)C(F)(F)F)CC1)N(Cc1ccc(-c2nnc(C(F)(F)F)o2)cc1)c1ccccc1` [Compound 11164, N-phenyl-1-(2,2,2-trifluoroacetyl)-N-(4-(5-(trifluoromethyl)-1,3,4-oxadiazol-2-yl)benzyl)piperidine-4-carboxamide], for which the “HDAC6 selectivity (fold)” value was determined as 298 fold and the IC50 was 336 nM.

On to `CS(=O)(=O)N1CCC(C(=O)N(Cc2ccc(-c3nnc(C(F)(F)F)o3)cc2)c2ccccc2)CC1` [Compound 11165, 1-(methylsulfonyl)-N-phenyl-N-(4-(5-(trifluoromethyl)-1,3,4-oxadiazol-2-yl)benzyl)piperidine-4-carboxamide], for which the “HDAC6 selectivity (fold)” value is reported as 800 fold and the IC50 was found to be 125 nM.

As to `CC(=O)N1CC(C(=O)N(Cc2ccc(-c3nnc(C(F)(F)F)o3)cc2)c2ccccc2)C1` [Compound 11187, N1-acetyl-N-phenyl-N-(4-(5-(trifluoromethyl)-1,3,4-oxadiazol-2-yl)benzyl)azetidine-3-carboxamide], the “HDAC6 selectivity (fold)” value is 144 fold and the IC50 was 189 nM.

For `O=C(c1ccncc1)N(Cc1ccc(-c2nnc(C(F)(F)F)o2)cc1F)c1cccc(F)c1` [Compound 11188, N-(2-fluoro-4-(5-(trifluoromethyl)-1,3,4-oxadiazol-2-yl)benzyl)-N-(3-fluorophenyl)isonicotinamide], the “HDAC6 selectivity (fold)” value stood at 935 fold and the IC50 was found to be 107 nM.

For the compound `O=C(c1ccncc1)N(Cc1ccc(-c2nnc(C(F)F)o2)cc1F)c1cccc(F)c1` [Compound 11189, N-(4-(5-(difluoromethyl)-1,3,4-oxadiazol-2-yl)-2-fluorobenzyl)-N-(3-fluorophenyl)isonicotinamide], the “HDAC6 selectivity (fold)” value is listed as 2564 fold and the IC50 was found to be 39 nM.

As to `CN1CCC(C(=O)N(Cc2ccc(-c3nnc(C(F)(F)F)o3)cc2F)c2ccccc2)CC1` [Compound 11200, N-(2-fluoro-4-(5-(trifluoromethyl)-1,3,4-oxadiazol-2-yl)benzyl)-1-methyl-N-phenylpiperidine-4-carboxamide], the “HDAC6 selectivity (fold)” value is given as 763 fold and the IC50 is 131 nM.

As to `CCN1CCC(C(=O)N(Cc2ccc(-c3nnc(C(F)(F)F)o3)cc2F)c2ccccc2)CC1` [Compound 11201], the “HDAC6 selectivity (fold)” value turned out to be 877 fold and the IC50 is 114 nM.

In the case of `CC(C)N1CCC(C(=O)N(Cc2ccc(-c3nnc(C(F)(F)F)o3)cc2F)c2ccccc2)CC1` [Compound 11202, N-(2-fluoro-4-(5-(trifluoromethyl)-1,3,4-oxadiazol-2-yl)benzyl)-1-isopropyl-N-phenylpiperidine-4-carboxamide], the “HDAC6 selectivity (fold)” value was 735 fold and the IC50 came to 136 nM.

As to `CC(=O)N1CCC(C(=O)N(Cc2ccc(-c3nnc(C(F)(F)F)o3)cc2F)c2ccccc2)CC1` [Compound 11203, 1-acetyl-N-(2-fluoro-4-(5-(trifluoromethyl)-1,3,4-oxadiazol-2-yl)benzyl)-N-phenylpiperidine-4-carboxamide], the “HDAC6 selectivity (fold)” value is reported as 694 fold and the IC50 is 144 nM.

As to `CCC(=O)N1CCC(C(=O)N(Cc2ccc(-c3nnc(C(F)(F)F)o3)cc2F)c2ccccc2)CC1` [Compound 11204, N-(2-fluoro-4-(5-(trifluoromethyl)-1,3,4-oxadiazol-2-yl)benzyl)-N-phenyl-1-propionylpiperidine-4-carboxamide], the “HDAC6 selectivity (fold)” value was found to be 917 fold and the IC50 is 109 nM.

For the compound `CC(C)C(=O)N1CCC(C(=O)N(Cc2ccc(-c3nnc(C(F)(F)F)o3)cc2F)c2ccccc2)CC1` [Compound 11205, N-(2-fluoro-4-(5-(trifluoromethyl)-1,3,4-oxadiazol-2-yl)benzyl)-1-isobutyryl-N-phenylpiperidine-4-carboxamide], the “HDAC6 selectivity (fold)” value was determined as 332 fold and the IC50 was determined as 301 nM.

For `O=C(C1CCN(C(=O)C(F)(F)F)CC1)N(Cc1ccc(-c2nnc(C(F)(F)F)o2)cc1F)c1ccccc1` [Compound 11206, N-(2-fluoro-4-(5-(trifluoromethyl)-1,3,4-oxadiazol-2-yl)benzyl)-N-phenyl-1-(2,2,2-trifluoroacetyl)piperidine-4-carboxamide], the “HDAC6 selectivity (fold)” value is given as 269 fold and the IC50 worked out at 372 nM.

For the compound `CS(=O)(=O)N1CCC(C(=O)N(Cc2ccc(-c3nnc(C(F)(F)F)o3)cc2F)c2ccccc2)CC1` [Compound 11207, N-(2-fluoro-4-(5-(trifluoromethyl)-1,3,4-oxadiazol-2-yl)benzyl)-1-(methylsulfonyl)-N-phenylpiperidine-4-carboxamide], the “HDAC6 selectivity (fold)” value is reported as 813 fold and the IC50 was determined as 123 nM.

`CN1CCC(C(=O)N(Cc2ccc(-c3nnc(C(F)F)o3)cc2F)c2ccccc2)CC1` [Compound 11208, N-(4-(5-(difluoromethyl)-1,3,4-oxadiazol-2-yl)-2-fluorobenzyl)-1-methyl-N-phenylpiperidine-4-carboxamide]: the “HDAC6 selectivity (fold)” value is recorded as 1136 fold and the IC50 came out at 88 nM.

In the case of `CCN1CCC(C(=O)N(Cc2ccc(-c3nnc(C(F)F)o3)cc2F)c2ccccc2)CC1` [Compound 11209, N-(4-(5-(difluoromethyl)-1,3,4-oxadiazol-2-yl)-2-fluorobenzyl)-1-ethyl-N-phenylpiperidine-4-carboxamide], the “HDAC6 selectivity (fold)” value stood at 1031 fold and the IC50 came out at 97 nM.

Turning to `CC(C)N1CCC(C(=O)N(Cc2ccc(-c3nnc(C(F)F)o3)cc2F)c2ccccc2)CC1` [Compound 11210, N-(4-(5-(difluoromethyl)-1,3,4-oxadiazol-2-yl)-2-fluorobenzyl)-1-isopropyl-N-phenylpiperidine-4-carboxamide], the “HDAC6 selectivity (fold)” value amounted to 418 fold and the IC50 was 239 nM.

Turning to `CC(=O)N1CCC(C(=O)N(Cc2ccc(-c3nnc(C(F)F)o3)cc2F)c2ccccc2)CC1` [Compound 11211, 1-acetyl-N-(4-(5-(difluoromethyl)-1,3,4-oxadiazol-2-yl)-2-fluorobenzyl)-N-phenylpiperidine-4-carboxamide], the “HDAC6 selectivity (fold)” value came out at 1351 fold and the IC50 amounted to 74 nM.
